Source: US20220119354A1, “DIAMINO-SUBSTITUTED PYRIDINES AND PYRIMIDINES AS HERBICIDES” (FMC Corporation, priority 2019, published 2022)

Key:
[1] = system: pigweed (Amaranthus retroflexus); experiment: Test A postemergence, pigweed; type: in vivo; conditions: Amaranthus retroflexus, post-emergence, 240 h, 0 to 100 scale, 0 no effect, 100 complete control, read-out: Plant response rating, Pigweed; for pest or weed control at 125 g/ha: 125 g ai/ha; for pest or weed control at 500 g/ha: 500 g ai/ha
Method in brief: (§1)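 Visual injury scored against untreated controls about 10 d after treatment, scale 0 = no effect to 100 = complete control. Compounds, formulated with surfactant in a non-phytotoxic solvent, went on as directed soil spray preemergence or onto 2–10 cm, one- to two-leaf plants postemergence; loam–sand soil, greenhouse.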

[2] = system: ryegrass, Italian (Lolium multiflorum); experiment: Test A postemergence, Italian ryegrass; type: in vivo; conditions: Lolium multiflorum, post-emergence, 240 h, 0 to 100 scale, 0 no effect, 100 complete control, read-out: Plant response rating, Ryegrass, Italian; for pest or weed control at 125 g/ha: 125 g ai/ha; for pest or weed control at 500 g/ha: 500 g ai/ha
Method in brief: as §1

[3] = system: wheat (Triticum aestivum); experiment: Test A postemergence, wheat; type: in vivo; conditions: Triticum aestivum, post-emergence, 240 h, 0 to 100 scale, 0 no effect, 100 complete control, read-out: Plant response rating, Wheat; for plant injury at 125 g/ha: 125 g ai/ha; for plant injury at 500 g/ha: 500 g ai/ha
Method in brief: as §1

Row | melting point [°C] | Structure (SMILES) | pest or weed control at 125 g/ha [1] [%] | pest or weed control at 500 g/ha [1] [%] | pest or weed control at 125 g/ha [2] [%] | pest or weed control at 500 g/ha [2] [%] | plant injury at 125 g/ha [3] [%] | plant injury at 500 g/ha [3] [%]
1 | 137 to 141 | C[C@@H](Nc1ncc(C(F)(F)F)c(N)n1)c1cc2c(F)cccc2s1 [Compound 61, N2-[(1R)-1-(4-fluorobenzo[b]thien-2-yl)ethyl]-5-(trifluoromethyl)-2,4-pyrimidinediamine] | 100 | 100 | 50 | 90 | 20 | 30
2 |  | C[C@@H](Nc1ncc(C(F)(F)F)c(N)n1)c1cc2cccc(F)c2o1 [Compound 71, N2-[(1R)-1-(7-fluoro-2-benzofuranyl)ethyl]-5-(trifluoromethyl)-2,4-pyrimidinediamine] | 100 | 100 | 30 | 70 | 0 | 0
3 |  | C[C@@H](Nc1ncc(C(F)(F)F)c(N)n1)c1cc2c(F)cccc2o1 [Compound 73, N2-[(1R)-1-(4-fluoro-2-benzofuranyl)ethyl]-5-(trifluoromethyl)-2,4-pyrimidinediamine] | 100 | 100 | 90 | 100 | 0 | 0
4 |  | C[C@@H](Nc1ncc(C(F)(F)F)c(N)n1)c1cc2cccc(F)c2s1 [Compound 75, N2-[(1R)-1-(7-fluorobenzo[b]thien-2-yl)ethyl]-5-(trifluoromethyl)-2,4-pyrimidinediamine] | 100 | 100 | 0 | 50 | 0 | 0
